Results as given in patent US6515103B1 (priority 1996, dated 2003).
Values joined by “and” are separate entries in the source; they are usually repeats but may differ in a detail not shown here. Equal entries are not always repeated. Where two headings read alike, the source gives them in different places. Marks after values point to notes of the source that are not given here. Where a SMILES comes first, the peptide text is derived from it. [ ]: non-standard residue; d: D form. Gla = N[C@@H](CC(C(=O)O)C(=O)O)C(=O)O

Assays:
[1] = system: young (<2 weeks old) mice; conditions: mouse, in vivo
CF #1 Mice = conditions: mouse, in vivo
[2] = biological target: kainate receptors (GluR6) (Homo sapiens, UniProt Q13002); type: cell-based
AMPA receptor GluR1 = AMPA receptor GluR1 (Homo sapiens, UniProt P42261); type: cell-based
NR1 A subtype = biological target: T1, NR1 A subtype (Homo sapiens, UniProt Q05586); type: cell-based
T1 construct: expressed in transfected cells; host or cells: oocytes

NR1.1 B subtype = biological target: T2, NR1.1 B subtype (Homo sapiens, UniProt Q05586); type: cell-based
T2 construct: expressed in transfected cells; host or cells: oocytes

[3] = system: Frings audiogenic seizure-susceptible mice; conditions: mouse, in vivo
[4] = system: young (<2 weeks old) mice; conditions: mouse, in vivo; remark: listed apart in the source
[5] = system: Frings audiogenic seizure-susceptible mice; conditions: mouse, in vivo; remark: listed apart in the source
NR1-1b/NR2D combination = biological target: T3, NR1-1b/NR2D combination (Homo sapiens, UniProt O15399+Q05586); type: cell-based
T3 construct: expressed in transfected cells; host or cells: oocytes

CF No. 1 mice = conditions: mouse, in vivo; for anticonvulsant activity in CF No. 1 mice: sc
[6] = system: young (<2 weeks old) mice; conditions: mouse, in vivo; remark: listed apart in the source
NR1-1b/NR2B NMDA subtype [7] = experiment: cell-based
NR1-1b/NR2B NMDA subtype [8] = biological target: T4, NR1-1b/NR2B NMDA subtype (Homo sapiens, UniProt Q05586+Q13224); experiment: cell-based
T4 construct: expressed in transfected cells; host or cells: oocytes

NMDA receptor [9] = experiment: spermine-stimulated [3H]MK-801 binding assay, inhibition
NMDA receptor [10] = biological target: NMDA receptor
[11] = biological target: NR1-1b/NR2B NMDA receptor subtype

T4 sequence (Q13224 27-1484, other chains not shown): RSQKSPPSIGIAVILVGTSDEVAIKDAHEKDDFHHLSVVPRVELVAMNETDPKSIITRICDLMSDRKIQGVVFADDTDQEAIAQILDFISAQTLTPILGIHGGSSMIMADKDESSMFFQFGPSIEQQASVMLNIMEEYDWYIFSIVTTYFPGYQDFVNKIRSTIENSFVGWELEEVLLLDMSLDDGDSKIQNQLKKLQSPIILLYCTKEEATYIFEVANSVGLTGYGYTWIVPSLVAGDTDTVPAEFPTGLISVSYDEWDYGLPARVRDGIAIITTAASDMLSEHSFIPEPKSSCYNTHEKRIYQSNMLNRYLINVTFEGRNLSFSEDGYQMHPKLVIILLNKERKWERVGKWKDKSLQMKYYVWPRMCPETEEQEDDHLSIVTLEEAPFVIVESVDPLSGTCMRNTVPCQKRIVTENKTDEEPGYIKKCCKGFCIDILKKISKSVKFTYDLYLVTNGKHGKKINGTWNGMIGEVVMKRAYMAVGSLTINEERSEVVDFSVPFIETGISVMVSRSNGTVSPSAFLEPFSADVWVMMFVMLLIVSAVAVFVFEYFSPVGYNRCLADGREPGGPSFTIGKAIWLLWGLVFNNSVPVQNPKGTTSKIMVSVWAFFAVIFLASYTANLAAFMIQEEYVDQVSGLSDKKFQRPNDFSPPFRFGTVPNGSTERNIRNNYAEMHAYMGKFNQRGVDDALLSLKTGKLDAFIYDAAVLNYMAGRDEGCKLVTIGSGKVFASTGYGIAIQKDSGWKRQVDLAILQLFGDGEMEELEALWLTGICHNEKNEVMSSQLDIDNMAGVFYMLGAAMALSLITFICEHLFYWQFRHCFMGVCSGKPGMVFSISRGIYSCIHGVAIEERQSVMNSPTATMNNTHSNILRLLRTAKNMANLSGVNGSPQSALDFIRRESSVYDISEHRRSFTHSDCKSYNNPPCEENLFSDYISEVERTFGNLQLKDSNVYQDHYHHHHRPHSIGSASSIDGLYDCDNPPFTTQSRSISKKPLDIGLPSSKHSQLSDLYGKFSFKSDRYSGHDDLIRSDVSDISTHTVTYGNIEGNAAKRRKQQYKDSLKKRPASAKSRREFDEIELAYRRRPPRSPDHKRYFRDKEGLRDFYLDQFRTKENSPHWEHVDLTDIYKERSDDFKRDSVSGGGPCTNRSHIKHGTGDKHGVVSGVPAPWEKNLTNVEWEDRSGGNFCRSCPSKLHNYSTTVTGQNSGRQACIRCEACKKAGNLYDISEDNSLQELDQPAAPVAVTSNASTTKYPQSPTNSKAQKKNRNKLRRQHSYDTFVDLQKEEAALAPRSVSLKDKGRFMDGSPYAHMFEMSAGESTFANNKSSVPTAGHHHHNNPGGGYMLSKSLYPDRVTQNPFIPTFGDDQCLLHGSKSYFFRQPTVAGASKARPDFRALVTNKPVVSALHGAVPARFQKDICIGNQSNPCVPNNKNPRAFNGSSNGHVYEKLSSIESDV
Sequence of kainate receptors (GluR6) (Q13002 32-908, species assumed): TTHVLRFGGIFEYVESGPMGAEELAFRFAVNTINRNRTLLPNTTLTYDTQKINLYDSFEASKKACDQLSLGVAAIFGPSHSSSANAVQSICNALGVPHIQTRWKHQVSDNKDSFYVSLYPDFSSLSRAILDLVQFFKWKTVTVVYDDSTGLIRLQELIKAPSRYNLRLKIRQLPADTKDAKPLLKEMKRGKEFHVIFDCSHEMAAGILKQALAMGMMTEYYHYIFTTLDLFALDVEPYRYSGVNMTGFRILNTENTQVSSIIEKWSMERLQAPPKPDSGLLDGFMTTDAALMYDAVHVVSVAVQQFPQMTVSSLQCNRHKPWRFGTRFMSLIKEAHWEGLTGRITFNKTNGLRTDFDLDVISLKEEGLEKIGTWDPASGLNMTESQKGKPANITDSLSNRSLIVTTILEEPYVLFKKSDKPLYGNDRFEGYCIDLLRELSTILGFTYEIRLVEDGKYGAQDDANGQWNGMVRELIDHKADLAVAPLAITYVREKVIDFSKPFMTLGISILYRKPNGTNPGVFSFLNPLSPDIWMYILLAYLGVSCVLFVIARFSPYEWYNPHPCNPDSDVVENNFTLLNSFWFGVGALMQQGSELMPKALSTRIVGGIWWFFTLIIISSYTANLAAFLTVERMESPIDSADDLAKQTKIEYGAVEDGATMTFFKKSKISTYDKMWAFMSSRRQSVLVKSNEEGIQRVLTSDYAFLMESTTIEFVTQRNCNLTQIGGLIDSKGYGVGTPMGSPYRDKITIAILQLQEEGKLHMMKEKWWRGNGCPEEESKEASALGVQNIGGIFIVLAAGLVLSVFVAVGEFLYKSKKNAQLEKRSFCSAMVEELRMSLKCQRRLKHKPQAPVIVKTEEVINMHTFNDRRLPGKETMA
Sequence of AMPA receptor GluR1 (P42261 19-906): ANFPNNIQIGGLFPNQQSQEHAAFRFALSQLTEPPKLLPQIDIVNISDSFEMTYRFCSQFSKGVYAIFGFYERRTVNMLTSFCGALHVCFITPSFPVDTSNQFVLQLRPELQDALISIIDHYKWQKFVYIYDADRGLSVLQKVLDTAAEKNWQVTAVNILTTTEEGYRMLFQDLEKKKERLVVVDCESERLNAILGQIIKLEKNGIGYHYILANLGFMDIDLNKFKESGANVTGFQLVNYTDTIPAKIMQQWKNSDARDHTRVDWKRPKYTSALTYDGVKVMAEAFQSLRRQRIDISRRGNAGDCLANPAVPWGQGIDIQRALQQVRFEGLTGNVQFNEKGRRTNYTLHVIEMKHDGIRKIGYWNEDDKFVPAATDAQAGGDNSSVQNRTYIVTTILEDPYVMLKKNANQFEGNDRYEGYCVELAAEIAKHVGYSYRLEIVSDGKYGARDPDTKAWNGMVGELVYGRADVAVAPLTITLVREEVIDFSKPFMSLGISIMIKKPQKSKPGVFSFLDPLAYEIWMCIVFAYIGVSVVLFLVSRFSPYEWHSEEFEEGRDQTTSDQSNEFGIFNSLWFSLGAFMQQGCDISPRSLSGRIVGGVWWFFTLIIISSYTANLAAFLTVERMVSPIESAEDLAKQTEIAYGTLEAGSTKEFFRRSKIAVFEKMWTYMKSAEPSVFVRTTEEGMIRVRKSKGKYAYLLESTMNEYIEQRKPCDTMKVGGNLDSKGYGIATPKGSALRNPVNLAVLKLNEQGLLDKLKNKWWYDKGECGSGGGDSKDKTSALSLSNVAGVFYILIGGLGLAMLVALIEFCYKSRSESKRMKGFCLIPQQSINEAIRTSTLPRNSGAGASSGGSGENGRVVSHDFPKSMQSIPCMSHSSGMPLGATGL
T3 sequence (O15399 28-1336, other chains not shown): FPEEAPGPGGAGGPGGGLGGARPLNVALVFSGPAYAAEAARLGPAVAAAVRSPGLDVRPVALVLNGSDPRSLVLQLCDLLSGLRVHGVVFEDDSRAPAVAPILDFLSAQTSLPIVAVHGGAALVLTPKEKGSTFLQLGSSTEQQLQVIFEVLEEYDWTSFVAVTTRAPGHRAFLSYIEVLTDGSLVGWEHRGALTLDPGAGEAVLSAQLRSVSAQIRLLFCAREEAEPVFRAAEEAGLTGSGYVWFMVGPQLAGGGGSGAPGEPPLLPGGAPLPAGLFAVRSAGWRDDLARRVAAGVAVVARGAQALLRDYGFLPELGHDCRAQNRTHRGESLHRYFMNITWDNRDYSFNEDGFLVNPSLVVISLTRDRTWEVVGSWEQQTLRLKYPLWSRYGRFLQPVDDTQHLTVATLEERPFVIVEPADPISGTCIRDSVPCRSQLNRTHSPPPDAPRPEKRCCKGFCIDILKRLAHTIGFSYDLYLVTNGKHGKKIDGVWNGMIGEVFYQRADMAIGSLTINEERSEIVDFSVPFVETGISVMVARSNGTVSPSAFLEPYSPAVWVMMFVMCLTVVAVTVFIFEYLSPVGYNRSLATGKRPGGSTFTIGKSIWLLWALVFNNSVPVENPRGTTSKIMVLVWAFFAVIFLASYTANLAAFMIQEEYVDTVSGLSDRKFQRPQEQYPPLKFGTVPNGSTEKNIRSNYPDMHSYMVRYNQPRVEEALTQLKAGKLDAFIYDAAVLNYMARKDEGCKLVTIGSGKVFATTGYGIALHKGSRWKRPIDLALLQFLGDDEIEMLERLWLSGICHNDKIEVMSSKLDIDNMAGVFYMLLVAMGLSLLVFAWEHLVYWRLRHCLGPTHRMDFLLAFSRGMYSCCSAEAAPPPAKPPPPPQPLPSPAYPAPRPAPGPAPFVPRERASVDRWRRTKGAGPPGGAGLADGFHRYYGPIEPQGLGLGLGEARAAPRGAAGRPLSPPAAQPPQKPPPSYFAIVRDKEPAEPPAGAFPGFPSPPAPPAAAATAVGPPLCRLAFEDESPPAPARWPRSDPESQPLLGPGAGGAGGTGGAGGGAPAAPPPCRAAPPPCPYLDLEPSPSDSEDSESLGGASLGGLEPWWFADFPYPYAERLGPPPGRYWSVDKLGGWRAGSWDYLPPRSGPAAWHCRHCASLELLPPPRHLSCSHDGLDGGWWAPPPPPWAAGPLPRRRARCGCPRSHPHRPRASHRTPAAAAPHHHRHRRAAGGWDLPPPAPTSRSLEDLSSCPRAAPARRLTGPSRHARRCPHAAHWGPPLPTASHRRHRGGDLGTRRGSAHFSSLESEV

CC[C@H](C)[C@H](NC(=O)[C@H](CC(N)=O)NC(=O)[C@H](CC(C(=O)O)C(=O)O)NC(=O)[C@H](CCCNC(=N)N)NC(=O)[C@H](C)NC(=O)[C@H](CC(C)C)NC(=O)[C@H](CC(C(=O)O)C(=O)O)NC(=O)[C@H](C)NC(=O)[C@H](C)NC(=O)[C@H](CCSC)NC(=O)[C@H](CCCCN)NC(=O)[C@H](C)NC(=O)[C@@H](NC(=O)[C@H](CC(C(=O)O)C(=O)O)NC(=O)[C@H](CC(C(=O)O)C(=O)O)NC(=O)[C@H](CCC(=O)O)NC(=O)CN)C(C)C)C(=O)N[C@@H](C)C(=O)N[C@@H](CCCCN)C(=O)NCC(=O)N[C@H]1CSSC[C@@H](C(=O)N[C@@H](Cc2ccc(O)cc2)C(=O)N2CCC[C@H]2C(=O)O)NC(=O)[C@H](CC(N)=O)NC(=O)[C@H](C(C)C)NC(=O)[C@H](CCCCN)NC1=O [Con R, Conantokin R]
Catalepsy Test, positive/tested [1]: 2/3
TD50 (CF #1 Mice): ˜0.300 nmols
inhibition of kainate receptors (GluR6) [2]: not to inhibit
inhibition of AMPA receptor GluR1 (AMPA receptor GluR1): not to inhibit
inhibition of homomeric NR1 complex, A subtype (NR1 A subtype): no effect
inhibition of homomeric NR1 complex, NR1.1 B subtype (NR1.1 B subtype): only inhibited the NR1.1 B subtype
# Protected/# Tested [3]: 4/4
ED50 [3]: 0.013^c nmols and 0.013 nmols
ED50 (pmol, i.c.v.) [3]: 9 pmol and 9.00 pmol
P.I. [3]: 17
Protective Index, PI (TD50/ED50) [3]: 18
antiseizure activity relative to valproic acid [3]: greater than 400,000 fold
protective index relative to valproic acid [3]: at least eight times better
Righting Reflex, positive/tested [4]: 2/3
TD50 [5]: 164 pmol
effect on NR1-1b/NR2D combination (NR1-1b/NR2D combination): not affected
MES ED50 (CF No. 1 mice): 0.083 nmols
P.I. (CF No. 1 mice): 3.6
anticonvulsant activity in CF No. 1 mice (CF No. 1 mice): anticonvulsant activity
Sleepy Test, positive/tested [6]: 2/3
affinity for NR1-1b/NR2B relative to NR1-1b/NR2D (NR1-1b/NR2B NMDA subtype [7]): greater than 50 fold
selectivity for the B splice variant of NR1 in heteromeric complexes (NR1-1b/NR2B NMDA subtype [7]): selective for the B splice variant
inhibition of heteromeric NR1:NR2B complexes with B splice variant of NR1 (NR1-1b/NR2B NMDA subtype [8]): inhibited
inhibition at 3 µM (NR1-1b/NR2B NMDA subtype [8]; read-out: inhibition of the current produced by the NR1-1b/NR2B NMDA subtype in response to glutamate and glycine): ~95%

CSCC[C@H](NC(=O)[C@H](CCCCN)NC(=O)[C@H](CCC(N)=O)NC(=O)[C@H](Cc1ccc(O)cc1)NC(=O)[C@H](CC(C(=O)O)C(=O)O)NC(=O)[C@H](CC(C(=O)O)C(=O)O)NC(=O)[C@H](CCC(=O)O)NC(=O)CN)C(=O)N[C@@H](CC(C)C)C(=O)N[C@@H](CC(C(=O)O)C(=O)O)C(=O)N[C@@H](CC(N)=O)C(=O)N[C@@H](CC(C)C)C(=O)N[C@@H](CCCNC(=N)N)C(=O)N[C@@H](CC(C(=O)O)C(=O)O)C(=O)N[C@@H](C)C(=O)N[C@@H](CCC(=O)O)C(=O)N[C@H](C(=O)N[C@@H](CCCCN)C(=O)N[C@@H](CCCCN)C(=O)N[C@@H](CC(N)=O)C(=O)N[C@@H](C)C(N)=O)C(C)C [Con T, Conantokin T] (H-GE[Gla][Gla]YQKML[Gla]NLR[Gla]AEVKKNA-NH2)
P.I. [3]: 13
TD50 [5]: 0.228 nmols
behavioral toxicity, rotorod test ([5]; iv, 12 mg/kg): No animals exhibited behavioral toxicity

A^7 Con G (peptide)
IC50 (NMDA receptor [9]): 45 nM

Conantokin G (peptide)
IC50 (NMDA receptor [9]): 195 nM
IC50 (NMDA receptor [10]): 195 nM

Conantokin Gm [Con Gm]
anticonvulsant activity in CF No. 1 mice (CF No. 1 mice): anticonvulsant activity

Conantokin Oc [Con Oc]
Catalepsy Test, positive/tested [1]: 0/3
Righting Reflex, positive/tested [4]: 0/3
Sleepy Test, positive/tested [6]: 2/3 and 0/3

Conantokin Qu [Con Qu]
anticonvulsant activity in CF No. 1 mice (CF No. 1 mice): anticonvulsant activity

Conantokin R (peptide)
Ki [11]: 140 nM

Conantokin S1 [Con S1]
anticonvulsant activity in CF No. 1 mice (CF No. 1 mice): anticonvulsant activity

Conatokin L [Con L]
Catalepsy Test, positive/tested [1]: 4/4 and 3/4
Righting Reflex, positive/tested [4]: 2/4 and 3/4
anticonvulsant activity in CF No. 1 mice (CF No. 1 mice): anticonvulsant activity
Sleepy Test, positive/tested [6]: 4/4
